Reference: patent publication US6761123B2, “INFUSION OF COMBUSTION GASES INTO BALLAST WATER PREFERABLY UNDER LESS THAN ATMOSPHERIC PRESSURE TO SYNERGISTICALLY KILL HARMFUL AQUATIC NUISANCE SPECIES BY SIMULTANEOUS HYPERCAPNIA, HYPOXIA AND ACIDIC PH LEVEL” (MH Systems, priority 2001, dated 2004)

Columns and labels:
[1] = tested on: plankton sample (mainly copepods); experiment: Incubation of plankton sample (mainly copepods) in gas-equilibrated seawater; format: in vivo
Excerpt: (§1) The purpose of the experiments described here was to obtain data on the effects of “inert gas” on marine organisms. “Inert gas” of a mixture hereinafter called trimix—a commercially available gas mixture of […], 12% CO2 and 84% nitrogen resembling the gas generated by commercially used marine “inert gas generators”—was used. Both adult and young adult marine organisms were chosen for two reasons: a) to make the size of specimens amenable for the experimental setup and b) to raise the significance of possible effects since adults of a species are typically more tolerant of environmental changes than juveniles or larvae. All marine organisms were collected fresh from the coastal waters off La Jolla, Calif. and used immediately. They are, in that particular environment, not necessarily nuisance organisms. Some of the organisms might be so considered, however, should they be introduced into other waters. […]
(§2) The schematic of an experimental setup in validation of the principles and methods of the present invention (and also, a miniature scale, the gaseous exchange system) is shown in FIG. 1. […] The oxygen concentrations were measured after the initial bubbling period using a Strathkelvin oxygen electrode with a Cameron instruments OM-200 oxygen analyzer. Values of pH were determined using a combination electrode and a Radiometer pH meter. […]

barnacles = experiment: Incubation of barnacles in gas-equilibrated seawater, survival by withdrawal of feet when disturbed; format: in vivo; conditions: 1.5 l seawater, 22° C., equilibrated with gas
Excerpt: as §1, §2

mussels = experiment: Incubation of mussels in gas-equilibrated seawater, survival by shell closing on tactile stimulus; format: in vivo; conditions: after 95 min incubation
Excerpt: as §1, §2

brittle stars = experiment: Incubation of brittle stars in gas-equilibrated seawater, survival by motile response; format: in vivo; conditions: transfer to aerobic conditions
Excerpt: as §1, §2

[2] = Oxygen concentration and pH of seawater bubbled with the gas; format: physicochemical
Description: The schematic of an experimental setup in validation of the principles and methods of the present invention (and also, a miniature scale, the gaseous exchange system) is shown in FIG. 1. Three parallel incubations were done for each experiment. Several organisms were incubated in 1.5 l of seawater at 22° C. in large Erlenmeyer flasks. Each incubation was equilibrated with the respective gas using aquarium stones before any organisms were introduced. The aerobic control was bubbled from an aquarium pump for approximately 15 min and left open to the atmosphere after addition of specimens. An anaerobic incubation was bubbled with 99.998% nitrogen for 15 min. After introduction of the organisms, the bubbling was continued for another 10 min and then the container was closed with a rubber stopper or the bubbling was continued. The incubation in […] treated similarly except that the gas mix was used instead of nitrogen. The oxygen concentrations were measured after the initial bubbling period using a Strathkelvin oxygen electrode with a Cameron instruments OM-200 oxygen analyzer. Values of pH were determined using a combination electrode and a Radiometer pH meter.

With `N#N` [nitrogen] as the compound, how does the “time after which plankton (mainly copepods) stopped moving” value ([1]; 1.5 l seawater, 22° C., equilibrated with gas) read?
Its value is 15 min.

What about the “revival of plankton (mainly copepods)” value ([1]; after they stopped moving) of the same compound?
Its value is “could not be revived”.

What about the “state of barnacles after incubation (withdrawal of feet when disturbed)” value (barnacles) of the same compound?
The value was “still behaved normally”.

And the “response of mussels to tactile stimuli (closing shells)” value (mussels)?
Its value is “still responded to tactile stimuli by closing their shells”.

What about the “state of mussel shells” value (mussels) of the same compound?
The value was “open”.

What about the “movement of brittle stars after transfer into aerated water” value (brittle stars) of the same compound?
The value was “started to move again”.

What about the “oxygen concentration of the incubation” value ([2]; measured after the initial bubbling period, oxygen electrode) of the same compound?
The value was “non-detectable”.

What about the “pH value of the seawater bubbled with the gas” value ([2]; seawater, normal pH 8, trimix value after initial 10 min of vigorous bubbling) of the same compound?
Its value is 8.
